# Reference: PubChem BioAssay (NCI)
#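 Grown in 96-well plates, cells were treated for 48 hours with each compound at five concentrations. Insufficient inhibition: endpoint recorded as highest concentration tested. GI50 is the concentration that inhibits growth by half. At the TGI there is no net growth.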
# Key:
# Assay in all cases: NCI-60 cell line screen, 48 h
# A549 NSCLC = tested on: A549 NSCLC
# CAKI-1 renal = tested on: CAKI-1 renal
# K-562 leukemia = tested on: K-562 leukemia
# NCI-H23 lung = tested on: NCI-H23 lung
# NCI-H460 lung = tested on: NCI-H460 lung
# OVCAR-5 ovarian = tested on: OVCAR-5 ovarian
# SF-295 CNS = tested on: SF-295 CNS
# U251 CNS = tested on: U251 CNS
# UO-31 renal = tested on: UO-31 renal
# IGROV1 ovarian = tested on: IGROV1 ovarian
SMILES,GI50 (A549 NSCLC) [µM],TGI (A549 NSCLC) [µM],GI50 (CAKI-1 renal) [µM],TGI (CAKI-1 renal) [µM],GI50 (K-562 leukemia) [µM],TGI (K-562 leukemia) [µM],GI50 (NCI-H23 lung) [µM],TGI (NCI-H23 lung) [µM],GI50 (NCI-H460 lung) [µM],TGI (NCI-H460 lung) [µM],GI50 (OVCAR-5 ovarian) [µM],TGI (OVCAR-5 ovarian) [µM],GI50 (SF-295 CNS) [µM],TGI (SF-295 CNS) [µM],GI50 (U251 CNS) [µM],TGI (U251 CNS) [µM],GI50 (UO-31 renal) [µM],TGI (UO-31 renal) [µM],GI50 (IGROV1 ovarian) [µM],TGI (IGROV1 ovarian) [µM]
C=CCC(N[C@@H](CO)c1ccccc1)c1cn(Cc2ccccc2Cl)c(=O)n(Cc2ccccc2Cl)c1=O (some centres undefined),> 100,> 100,73.6,> 100,> 100,> 100,> 100,> 100,> 100,> 100,> 100,> 100,> 100,> 100,> 100,> 100,> 100,> 100,,
COc1ccc(/C=C(/C(=O)N2CCN(c3ccccc3)CC2)c2cc(OC)c(OC)c(OC)c2)cc1N,0.68,> 100,,,0.316,> 100,2.18,> 100,0.364,> 100,0.569,> 100,0.342,> 100,0.361,> 100,0.812,> 100,0.697,> 100
O=C1c2[nH]cc(CNC3CN4CCC3CC4)c2C(=O)c2c1c(O)c1ccccc1c2O (centres undefined),6.31,47.4,0.612,2.05,0.238,12.1,,,,,2.01,3.78,2.05,3.62,1.21,2.58,3.66,21.4,1.33,3.84
Cc1ccc(S(=O)(=O)c2ccc(NC(=O)SCCC(=O)O)cc2)cc1,,> 100,,> 100,,> 100,,> 100,,> 100,,> 100,,> 100,,> 100,,> 100,,> 100
C=C=C(C(=O)OC)S(=O)c1ccccc1[N+](=O)[O-] (centres undefined),,> 100,,> 100,,> 100,,> 100,,> 100,,> 100,,> 100,,> 100,,> 100,,> 100
COc1ccc(OC(C)=O)c2c1CCC=CC2=O,,35.4,,,,18.6,,32.8,,34.7,,31,,35.4,,32.2,,30.9,,34.4
CCN(CC)CC(C)(C)C(=O)/C=C/c1cccc(/C=C/C(=O)C(C)(C)CN(CC)CC)c1,,2.67,,0.965,,> 100,,2.7,,2.31,,2.98,,3.28,,0.686,,3.17,,2.23
CC[C@H](NC(=O)[C@H]1CCCCN1C)C(=O)N(C)[C@H](C[C@@H](OC(C)=O)c1nc(C(=O)N[C@@H](Cc2ccccc2)C[C@H](C)C(=O)O)cs1)C(C)C,0.0109,> 14.3,0.00602,> 14.3,0.00209,> 14.3,0.0073,> 14.3,0.00436,> 14.3,0.0288,> 14.3,0.00456,> 6.44,0.0047,> 14.3,0.0741,> 14.3,0.0145,> 14.3
C#CCNC(=O)N(CC#C)N=O,,,,> 100,,> 100,,> 100,,> 100,,> 100,,> 100,,> 100,,> 100,,> 100
Cc1cc(Cl)cc2c(N=Nc3ccc(S(N)(=O)=O)cc3)c(O)[nH]c12,> 25,> 25,> 25,> 25,> 25,> 25,> 25,> 25,> 25,> 25,> 25,> 25,> 25,> 25,> 25,> 25,> 25,> 25,> 25,> 25
O=C1/C(=N\O)c2ccccc2S1(=O)=O,,> 100,,83.7,,> 100,,,,> 100,,> 100,,> 100,,> 100,,> 100,,> 100
OC(c1cc(-c2cccc(Cl)c2)nc2ccccc12)C1CCCCN1 (centres undefined),1.7,3.1,1.24,2.72,1.39,4.46,2.01,4.2,,,1.62,3.29,1.59,3.22,1.66,3.05,1.36,2.74,1.69,3.21
C=C1CC2CCCC12C=O (centres undefined),,> 10,,> 10,,> 10,,> 10,,,,,,> 10,,> 10,,,,> 10
O=C(COc1ccc(/C=C2\COc3ccccc3C2=O)cc1)Nc1nccs1,14.3,47.4,7.55,20.7,1.6,4.64,11.2,25.4,18.6,64.6,16.7,32.9,3.1,12.8,6.29,19.1,11.9,25.5,,
COc1ccc2sc3cccc(NCCN(C)C)c3c(=O)c2c1,2.57,7.15,3.72,15.5,2.37,5.2,3.64,14.2,2.57,6.22,3.42,14.5,4.61,17.5,,,2.06,6.97,3.35,11.6
c1ccc([CH2][Sn]([CH2]c2ccccc2)([O]c2cccc3cccnc23)[O]c2cccc3cccnc23)cc1,0.245,0.69,0.92,2.2,,,0.508,1.84,0.207,0.446,0.338,1.06,0.579,1.92,0.218,0.463,0.363,1.39,0.403,1.23
COC1OC(CO)C(O)C(OC(C)=O)C1NC(=O)N(CCCl)N=O (centres undefined),,> 100,,> 100,,> 100,,> 100,,> 100,,> 100,,> 100,,,,,,> 100

SMILES,GI50 (A549 NSCLC) [µM],TGI (A549 NSCLC) [µM],GI50 (CAKI-1 renal) [µM],TGI (CAKI-1 renal) [µM],GI50 (K-562 leukemia) [µM],TGI (K-562 leukemia) [µM],GI50 (NCI-H23 lung) [µM],TGI (NCI-H23 lung) [µM],GI50 (NCI-H460 lung) [µM],TGI (NCI-H460 lung) [µM],GI50 (OVCAR-5 ovarian) [µM],TGI (OVCAR-5 ovarian) [µM],GI50 (SF-295 CNS) [µM],TGI (SF-295 CNS) [µM],GI50 (U251 CNS) [µM],TGI (U251 CNS) [µM],GI50 (UO-31 renal) [µM],TGI (UO-31 renal) [µM],GI50 (IGROV1 ovarian) [µM],TGI (IGROV1 ovarian) [µM]
CO/C=C/C(=O)c1cc2cnc3c(=N)cc(NC(=O)C(C)C)c([nH]1)c23,1.52,15.1,,,0.117,17.4,0.0432,1.83,0.323,11.4,0.12,7.41,0.105,0.771,0.0889,0.61,0.0169,0.323,0.0187,0.138
COC1=CC(c2ccc[nH]2)=N/C1=C\c1[nH]c(C)c(CC(=O)OCc2ccccc2)c1CCC(=O)OCc1ccccc1,0.427,10.9,0.343,2.21,,,0.546,4.45,0.399,13.1,1.26,6.12,0.305,1.3,0.345,1.68,0.21,0.577,0.4,2.55
Nc1cc(F)ccc1CC(=O)O,,> 100,,> 100,,> 100,,> 100,,,,> 100,,> 100,,> 100,,> 100,,> 100
CSc1ccc(-c2ccccc(=O)c2O)cc1,0.896,83.8,,,0.447,> 100,0.688,28.3,0.371,10.8,1.64,> 100,0.437,18.3,0.568,24.6,0.351,5.2,0.427,> 100
O=S(=O)([O-])c1ccc(N=Cc2ccccc2[O-])cc1.O=S(=O)([O-])c1ccc(N=Cc2ccccc2[O-])cc1.[O]=[U+2]=[O],> 100,> 100,,,> 100,> 100,> 100,> 100,> 100,> 100,> 100,> 100,> 100,> 100,94.7,> 100,> 100,> 100,83.8,> 100
COc1c(C)cc(O)cc1C=O,,> 100,,> 100,,> 100,,,,> 100,,> 100,,> 100,,> 100,,> 100,,> 100
CC[C@H]1CN2CCc3cc(OC)c(OC)cc3C2C[C@@H]1CC1NCCc2cc(OC)c(OC)cc21 (some centres undefined),,0.0523,,0.292,0.0137,0.0779,,0.0916,,0.112,,0.645,,,,,,,,0.407
CCOC(=O)C1SC(=Nc2cccc(Cl)c2C)N=C1C (centres undefined),,60.4,,,,89,,> 10,,> 100,,41.9,,39.7,,30.3,,78.9,,> 100
CC[C@@H]1[C@@H](C)O[C@@](O)([C@@H](C)[C@H](O)[C@H](C)[C@H]2OC(=O)/C=C/C=C/[C@H](C)[C@@H]([C@@H](C)[C@@H](O)[C@H](C)[C@@]3(O)C[C@@H](O[C@H]4C[C@@H](O)[C@H](O)C(C)O4)[C@H](CC)[C@@H](C)O3)OC(=O)/C=C/C=C/[C@@H]2C)C[C@H]1O[C@@H]1C[C@@H](O)[C@H](O)C(C)O1 (some centres undefined),0.112,0.344,,,0.116,0.378,0.0655,0.149,0.0569,0.115,0.0839,0.316,0.061,0.132,0.113,0.39,0.134,0.583,0.0903,0.241
CCN(CC)CCNc1ccc(C)c2sc3cc(Cl)ccc3c(=O)c12,1.76,3.28,,,1.64,3.44,1.7,3.47,1.87,3.54,1.61,3.1,1.67,3.16,1.73,3.22,1.32,2.69,1.83,4.05
C=CC(=O)NCCSCCCOC1(C(=O)O)CC(O)C(NC(C)=O)C(C(O)C(O)CO)O1 (centres undefined),,> 100,,,,> 100,,> 100,,> 100,,> 100,,> 100,,> 100,,> 100,,> 100
COc1cccc2ccc(C(=O)c3ccccc3)nc12,,> 100,,> 100,,> 100,,> 100,,,,> 100,,> 100,,> 100,,,,> 100
NCCCNc1nc2ccccc2c2c(=O)c3cc(F)cc(F)c3sc12,,,1.86,4.18,,,1.78,3.36,1.58,3.14,1.6,3.03,1.99,4.06,,,1.48,2.88,,
COc1ccc(C(CCC(C)=O)C(=O)O)cc1OC (centres undefined),,> 100,,> 100,,> 100,,> 100,,> 100,,> 100,,> 100,,> 100,,,,> 100
COC(=O)CCC(NC(=S)N/N=C/c1ccccn1)C(=O)OC (centres undefined),,> 100,,,,> 100,,> 100,,> 100,,> 100,,> 100,,> 100,,> 100,,> 100
C[n+]1c(/C=C/c2c[nH]c3ccccc23)ccc2ccccc21,5.38,26,14.6,34.9,2.32,18.1,,,3.14,12.9,18,59.1,6.93,20.5,8.75,22.5,11.3,30.4,11,39.4
